Assay results: ChEMBL document CHEMBL3297661, “1-Substituted-5-[(3,5-dinitrobenzyl)sulfanyl]-1H-tetrazoles and their isosteric analogs: A new class of selective antitubercular agents active against drug-susceptible and multidrug-resistant mycobacteria” (Eur J Med Chem, 2014)
In brackets after ≈: the same amount, converted by molar mass.

Columns and labels:
[1] = system: Nakaseomyces glabratus; assay: Antifungal activity against Candida glabrata 20/I after 24 hrs by broth microdilution method; assay type: functional
[2] = system: Enterococcus faecalis; assay: Antibacterial activity against Enterococcus faecalis J 14365/08 after 24 hrs by broth microdilution method; assay type: functional; conditions: J 14365/08, 24 h
[3] = system: Pseudomonas aeruginosa; assay: Antibacterial activity against Pseudomonas aeruginosa ATCC 9027 after 48 hrs by broth microdilution method; assay type: functional; conditions: ATCC 9027, 48 h
[4] = Cytotoxicity against human HuH7 cells assessed as reduction in cell viability after 48 hrs by MTT assay; assay type: cell-based; conditions: Huh-7, 48 h
[5] = system: Aspergillus fumigatus; assay: Antifungal activity against Aspergillus fumigatus 231 after 24 hrs by broth microdilution method; assay type: functional, organism-based; conditions: Aspergillus fumigatus, 231, 24 h
[6] = system: Candida tropicalis; assay: Antifungal activity against Candida tropicalis 156 after 24 hrs by broth microdilution method; assay type: functional; conditions: Candida tropicalis, 156, 24 h
[7] = system: Staphylococcus aureus; assay: Antibacterial activity against methicillin-resistant Staphylococcus aureus H 5996/08 after 24 hrs by broth microdilution method; assay type: functional; conditions: H 5996/08, 24 h
[8] = system: Staphylococcus aureus; assay: Antibacterial activity against methicillin-resistant Staphylococcus aureus H 5996/08 after 48 hrs by broth microdilution method; assay type: functional; conditions: H 5996/08, 48 h
[9] = system: Pichia kudriavzevii; assay: Antifungal activity against Candida krusei E28 after 24 hrs by broth microdilution method; assay type: functional; conditions: E28, 24 h
[10] = system: Trichophyton mentagrophytes; assay: Antifungal activity against Trichophyton mentagrophytes 445 after 120 hrs by broth microdilution method; assay type: functional, organism-based; conditions: Trichophyton mentagrophytes, 445, 120 h
[11] = system: Mycobacterium tuberculosis; assay: Antimycobacterial activity against Mycobacterium tuberculosis CNCTC My 331/88 after 21 days by micromethod; assay type: functional; conditions: CNCTC My 331/88, 504 h
[12] = system: Mycobacterium avium; assay: Antimycobacterial activity against Mycobacterium avium CNCTC My 330/88 after 14 days by micromethod; assay type: functional; conditions: CNCTC My 330/88, 336 h
[13] = system: Klebsiella pneumoniae; assay: Antibacterial activity against Klebsiella pneumoniae D 11750/08 after 48 hrs by broth microdilution method; assay type: functional; conditions: D 11750/08, 48 h
[14] = system: Klebsiella pneumoniae; assay: Antibacterial activity against extended spectrum beta-lactamase producing Klebsiella pneumoniae J 14368/08 after 48 hrs by broth microdilution method; assay type: functional; conditions: J 14368/08, 48 h
[15] = system: Escherichia coli; assay: Antibacterial activity against Escherichia coli ATCC 8739 after 48 hrs by broth microdilution method; assay type: functional; conditions: ATCC 8739, ATCC 8739, 48 h
[16] = system: Pseudomonas aeruginosa; assay: Antibacterial activity against Pseudomonas aeruginosa ATCC 9027 after 24 hrs by broth microdilution method; assay type: functional; conditions: ATCC 9027, 24 h
[17] = system: Candida albicans; assay: Antifungal activity against Candida albicans ATCC 44859 after 48 hrs by broth microdilution method; assay type: functional; conditions: ATCC 44859, 48 h
[18] = system: Candida tropicalis; assay: Antifungal activity against Candida tropicalis 156 after 48 hrs by broth microdilution method; assay type: functional; conditions: Candida tropicalis, 156, 48 h
[19] = system: Klebsiella pneumoniae; assay: Antibacterial activity against extended spectrum beta-lactamase producing Klebsiella pneumoniae J 14368/08 after 24 hrs by broth microdilution method; assay type: functional; conditions: J 14368/08, 24 h
[20] = system: Lichtheimia corymbifera; assay: Antifungal activity against Absidia corymbifera 272 after 24 hrs by broth microdilution method; assay type: functional, organism-based; conditions: Lichtheimia corymbifera, 272, 24 h
[21] = Cytotoxicity against MDCK2 cells assessed as reduction in cell viability after 48 hrs by MTT assay; assay type: cell-based; conditions: Canis lupus familiaris, MDCK-II
[22] = system: Pichia kudriavzevii; assay: Antifungal activity against Candida krusei E28 after 48 hrs by broth microdilution method; assay type: functional; conditions: E28, 48 h
[23] = system: Staphylococcus aureus; assay: Antibacterial activity against Staphylococcus aureus ATCC 6538 after 48 hrs by broth microdilution method; assay type: functional; conditions: ATCC 6538, 48 h
[24] = system: Trichosporon asahii; assay: Antifungal activity against Trichosporon asahii 1188 after 48 hrs by broth microdilution method; assay type: functional; conditions: Trichosporon asahii, 1188, 48 h
[25] = system: Klebsiella pneumoniae; assay: Antibacterial activity against Klebsiella pneumoniae D 11750/08 after 24 hrs by broth microdilution method; assay type: functional; conditions: D 11750/08, 24 h
[26] = system: Staphylococcus aureus; assay: Antibacterial activity against Staphylococcus aureus ATCC 6538 after 24 hrs by broth microdilution method; assay type: functional; conditions: ATCC 6538, 24 h
[27] = Cytotoxicity against MDCK2 cells assessed as cell viability at 30 uM after 48 hrs by MTT assay; assay type: cell-based, Canis lupus familiaris, MDCK-II; conditions: dog, read-out: Activity
[28] = system: Mycobacterium kansasii; assay: Antimycobacterial activity against Mycobacterium kansasii CNCTC My 235/80 after 14 days by micromethod; assay type: functional; conditions: CNCTC My 235/80, 336 h
[29] = system: Enterococcus faecalis; assay: Antibacterial activity against Enterococcus faecalis J 14365/08 after 48 hrs by broth microdilution method; assay type: functional; conditions: J 14365/08, 48 h
[30] = Cytotoxicity against human HuH7 cells assessed as cell viability at 30 uM after 48 hrs by MTT assay; assay type: cell-based, Huh-7; conditions: read-out: Activity
[31] = Cytotoxicity against human HeLa cells assessed as cell viability at 30 uM after 48 hrs by MTT assay; assay type: cell-based; conditions: read-out: Activity
[32] = system: HeLa; assay: Cytotoxicity against human HeLa cells assessed as reduction in cell viability after 48 hrs by MTT assay; assay type: cell-based
[33] = system: Staphylococcus epidermidis; assay: Antibacterial activity against Staphylococcus epidermidis H 6966/08 after 24 hrs by broth microdilution method; assay type: functional; conditions: H 6966/08, 24 h
[34] = system: Mycobacterium kansasii; assay: Antimycobacterial activity against Mycobacterium kansasii CNCTC My 235/80 after 7 days by micromethod; assay type: functional; conditions: CNCTC My 235/80, 168 h
[35] = system: Trichosporon asahii; assay: Antifungal activity against Trichosporon asahii 1188 after 24 hrs by broth microdilution method; assay type: functional; conditions: Trichosporon asahii, 1188, 24 h
[36] = system: Trichophyton mentagrophytes; assay: Antifungal activity against Trichophyton mentagrophytes 445 after 72 hrs by broth microdilution method; assay type: functional, organism-based; conditions: Trichophyton mentagrophytes, 445, 72 h
[37] = system: Escherichia coli; assay: Antibacterial activity against Escherichia coli ATCC 8739 after 24 hrs by broth microdilution method; assay type: functional; conditions: ATCC 8739, ATCC 8739, 24 h
[38] = Cytotoxicity against human HepG2 cells assessed as cell viability at 30 uM after 48 hrs by MTT assay; assay type: cell-based; conditions: read-out: Activity
[39] = system: Mycobacterium kansasii; assay: Antimycobacterial activity against Mycobacterium kansasii 6509/96 after 21 days by micromethod; assay type: functional; conditions: 6509/96, 504 h
[40] = system: Mycobacterium kansasii; assay: Antimycobacterial activity against Mycobacterium kansasii 6509/96 after 7 days by micromethod; assay type: functional; conditions: 6509/96, 168 h
[41] = system: Nakaseomyces glabratus; assay: Antifungal activity against Candida glabrata 20/I after 48 hrs by broth microdilution method; assay type: functional
[42] = system: Candida albicans; assay: Antifungal activity against Candida albicans ATCC 44859 after 24 hrs by broth microdilution method; assay type: functional; conditions: ATCC 44859, 24 h
[43] = system: HepG2; assay: Cytotoxicity against human HepG2 cells assessed as reduction in cell viability after 48 hrs by MTT assay; assay type: cell-based; conditions: HepG2, 48 h
[44] = system: Lichtheimia corymbifera; assay: Antifungal activity against Absidia corymbifera 272 after 48 hrs by broth microdilution method; assay type: functional, organism-based; conditions: Lichtheimia corymbifera, 272, 48 h
[45] = system: Mycobacterium kansasii; assay: Antimycobacterial activity against Mycobacterium kansasii CNCTC My 235/80 after 21 days by micromethod; assay type: functional; conditions: CNCTC My 235/80, 504 h
[46] = system: Mycobacterium avium; assay: Antimycobacterial activity against Mycobacterium avium CNCTC My 330/88 after 21 days by micromethod; assay type: functional; conditions: CNCTC My 330/88, 504 h
[47] = system: Mycobacterium kansasii; assay: Antimycobacterial activity against Mycobacterium kansasii 6509/96 after 14 days by micromethod; assay type: functional; conditions: 6509/96, 336 h
[48] = system: Mycobacterium tuberculosis; assay: Antimycobacterial activity against Mycobacterium tuberculosis CNCTC My 331/88 after 14 days by micromethod; assay type: functional; conditions: CNCTC My 331/88, 336 h
[49] = system: Staphylococcus epidermidis; assay: Antibacterial activity against Staphylococcus epidermidis H 6966/08 after 48 hrs by broth microdilution method; assay type: functional; conditions: H 6966/08, 48 h
[50] = system: Aspergillus fumigatus; assay: Antifungal activity against Aspergillus fumigatus 231 after 48 hrs by broth microdilution method; assay type: functional, organism-based; conditions: Aspergillus fumigatus, 231, 48 h

SMILES: O=[N+]([O-])c1cc(C[Se]c2nnnn2Cc2ccccc2)cc([N+](=O)[O-])c1
- IC80 [1]: > 500 µM
- IC95 [2]: > 500 µM
- IC95 [3]: > 500 µM
- IC50 [4]: > 30 µM
- IC50 [5]: > 500 µM
- IC80 [6]: > 500 µM
- IC95 [7]: > 500 µM
- IC95 [8]: > 500 µM
- IC80 [9]: > 500 µM
- IC50 [10]: > 500 µM
- MIC [11]: 2 µM (≈ 0.839 µg/mL)
- MIC [12]: 32 µM (≈ 13.4 µg/mL)
- IC95 [13]: > 500 µM
- IC95 [14]: > 500 µM
- IC95 [15]: > 500 µM
- IC95 [16]: > 500 µM
- IC80 [17]: > 500 µM
- IC80 [18]: > 500 µM
- IC95 [19]: > 500 µM
- IC50 [20]: > 500 µM
- IC50 [21]: 22 µM
- IC80 [22]: > 500 µM
- IC95 [23]: > 500 µM
- IC80 [24]: > 500 µM
- IC95 [25]: > 500 µM
- IC95 [26]: > 500 µM
- viability at 48 h, 30 µM [27]: 41%
- MIC [28]: 4 µM (≈ 1.68 µg/mL)
- IC95 [29]: > 500 µM
- viability at 48 h, 30 µM [30]: 70%
- viability at 48 h, 30 µM [31]: 54%
- IC50 [32]: > 30 µM
- IC95 [33]: > 500 µM
- MIC [34]: 2 µM (≈ 0.839 µg/mL)
- IC80 [35]: > 500 µM
- IC50 [36]: > 500 µM
- IC95 [37]: > 500 µM
- viability at 48 h, 30 µM [38]: 33%
- MIC [39]: 8 µM (≈ 3.35 µg/mL)
- MIC [40]: 4 µM (≈ 1.68 µg/mL)
- IC80 [41]: > 500 µM
- IC80 [42]: > 500 µM
- IC50 [43]: 16.5 µM
- IC50 [44]: > 500 µM
- MIC [45]: 4 µM (≈ 1.68 µg/mL)
- MIC [46]: 32 µM (≈ 13.4 µg/mL)
- MIC [47]: 8 µM (≈ 3.35 µg/mL)
- MIC [48]: 1 µM (≈ 0.419 µg/mL)
- IC95 [49]: > 500 µM
- IC50 [50]: > 500 µM

SMILES: O=[N+]([O-])c1cc(CSc2nnnn2-c2ccc(Cl)c(Cl)c2)cc([N+](=O)[O-])c1
- IC80 [1]: > 125 µM
- IC95 [2]: > 125 µM
- IC95 [3]: > 125 µM
- IC50 [4]: > 30 µM
- IC50 [5]: > 125 µM
- IC80 [6]: > 125 µM
- IC95 [7]: > 125 µM
- IC95 [8]: > 125 µM
- IC80 [9]: > 125 µM
- IC50 [10]: > 125 µM
- MIC [11]: 1 µM (≈ 0.427 µg/mL)
- MIC [12]: 8 µM (≈ 3.42 µg/mL)
- IC95 [13]: > 125 µM
- IC95 [14]: > 125 µM
- IC95 [15]: > 125 µM
- IC95 [16]: > 125 µM
- IC80 [17]: > 125 µM
- IC80 [18]: > 125 µM
- IC95 [19]: > 125 µM
- IC50 [20]: > 125 µM
- IC50 [21]: > 30 µM
- IC80 [22]: > 125 µM
- IC95 [23]: > 125 µM
- IC80 [24]: > 125 µM
- IC95 [25]: > 125 µM
- IC95 [26]: > 125 µM
- viability at 48 h, 30 µM [27]: 53%
- MIC [28]: 1 µM (≈ 0.427 µg/mL)
- IC95 [29]: > 125 µM
- viability at 48 h, 30 µM [30]: 90%
- viability at 48 h, 30 µM [31]: 67%
- IC50 [32]: > 30 µM
- IC95 [33]: > 125 µM
- MIC [34]: 1 µM (≈ 0.427 µg/mL)
- IC80 [35]: > 125 µM
- IC50 [36]: > 125 µM
- IC95 [37]: > 125 µM
- viability at 48 h, 30 µM [38]: 42%
- MIC [39]: 4 µM (≈ 1.71 µg/mL)
- MIC [40]: 1 µM (≈ 0.427 µg/mL)
- IC80 [41]: > 125 µM
- IC80 [42]: > 125 µM
- IC50 [43]: 26 µM
- IC50 [44]: > 125 µM
- MIC [45]: 2 µM (≈ 0.854 µg/mL)
- MIC [46]: 16 µM (≈ 6.84 µg/mL)
- MIC [47]: 2 µM (≈ 0.854 µg/mL)
- MIC [48]: 1 µM (≈ 0.427 µg/mL)
- IC95 [49]: > 125 µM
- IC50 [50]: > 125 µM
